Data set [1] relates to Mus musculus. Nature of the data set: Reduction in triglycerides level in mouse at 10 mg/kg, po after 2 hrs by postprandial triglyceride assay. It counts as functional.
The nature of data set [2]: Metabolic stability in human plasma assessed as compound loss measured at 12 hrs at 25 degC. The conditions noted are these: read-out: Drug metabolism. Format: ADME, cell-free.
The target in data set [3] is T1, Diacylglycerol O-acyltransferase 1 (Mus musculus, UniProt Q9Z2A7).
T1 sequence (Q9Z2A7 whole entry): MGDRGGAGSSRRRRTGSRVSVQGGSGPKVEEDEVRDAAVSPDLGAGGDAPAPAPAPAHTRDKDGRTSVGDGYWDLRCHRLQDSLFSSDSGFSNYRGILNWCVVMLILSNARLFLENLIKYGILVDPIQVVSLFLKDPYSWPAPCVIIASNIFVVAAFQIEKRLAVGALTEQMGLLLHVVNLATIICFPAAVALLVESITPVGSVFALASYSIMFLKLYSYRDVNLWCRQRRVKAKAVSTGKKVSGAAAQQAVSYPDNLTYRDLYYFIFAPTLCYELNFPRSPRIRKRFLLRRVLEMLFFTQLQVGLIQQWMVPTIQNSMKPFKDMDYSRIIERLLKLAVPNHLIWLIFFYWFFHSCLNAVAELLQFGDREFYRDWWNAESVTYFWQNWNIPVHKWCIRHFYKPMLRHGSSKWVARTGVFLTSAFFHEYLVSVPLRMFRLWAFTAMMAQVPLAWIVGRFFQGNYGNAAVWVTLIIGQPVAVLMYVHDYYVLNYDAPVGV
Nature of the data set: Inhibition of mouse DGAT1 expressed in Sf9 insect cells using 1,2-dioleoyl-sn-glycerol and [14C]-palmitoyl-CoA substrate by scintillation counting analysis.

Data set [4] in a line: Solubility of the compound. It counts as physicochemical.
Data set [5] addresses T2, Diacylglycerol O-acyltransferase 2 (Homo sapiens) (UniProt Q96PD7).
T2 sequence (whole entry): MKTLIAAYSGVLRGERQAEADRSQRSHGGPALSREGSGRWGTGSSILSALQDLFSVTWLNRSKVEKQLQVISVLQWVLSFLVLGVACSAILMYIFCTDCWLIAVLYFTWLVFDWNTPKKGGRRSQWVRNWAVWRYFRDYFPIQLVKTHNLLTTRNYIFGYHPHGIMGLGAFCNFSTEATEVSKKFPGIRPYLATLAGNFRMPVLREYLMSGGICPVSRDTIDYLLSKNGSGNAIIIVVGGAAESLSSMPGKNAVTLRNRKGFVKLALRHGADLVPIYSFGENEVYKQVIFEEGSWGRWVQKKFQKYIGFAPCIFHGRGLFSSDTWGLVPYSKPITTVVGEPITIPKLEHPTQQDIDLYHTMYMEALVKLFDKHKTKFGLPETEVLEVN
As to the kind of experiment: (§1) Inhibition of human DGAT2 expressed in Sf9 insect cells using 1,2-dioleoyl-sn-glycerol and [14C]-palmitoyl-CoA substrate by scintillation counting analysis.

Data set [6] in a line: AUC in rat at 10 mg/kg. Format: ADME, organism-based. The arrangement: dose 10 mg/kg. Particulars: plasma.
The target in data set [7] is T3, Sterol O-acyltransferase 2 (Homo sapiens, UniProt O75908).
T3 sequence (O75908 whole entry): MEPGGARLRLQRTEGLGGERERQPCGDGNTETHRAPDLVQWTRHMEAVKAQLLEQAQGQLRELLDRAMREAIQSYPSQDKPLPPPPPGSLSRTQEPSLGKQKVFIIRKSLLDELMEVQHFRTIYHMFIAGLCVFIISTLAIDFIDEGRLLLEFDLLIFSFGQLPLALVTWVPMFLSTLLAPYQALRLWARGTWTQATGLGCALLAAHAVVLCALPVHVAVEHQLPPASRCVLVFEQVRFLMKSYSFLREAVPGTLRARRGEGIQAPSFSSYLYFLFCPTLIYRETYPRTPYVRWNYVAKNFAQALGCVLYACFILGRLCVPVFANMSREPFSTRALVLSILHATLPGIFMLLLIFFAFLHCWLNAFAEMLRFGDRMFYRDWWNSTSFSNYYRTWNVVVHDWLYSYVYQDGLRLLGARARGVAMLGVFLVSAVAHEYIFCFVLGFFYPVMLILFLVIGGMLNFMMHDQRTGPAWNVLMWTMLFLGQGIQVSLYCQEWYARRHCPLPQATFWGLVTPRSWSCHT
As to the kind of experiment: Inhibition of human ACAT2 expressed in Sf9 insect cells using [14C]-oleoyl-CoA by scintillation counting analysis.

Data set [8] concerns Mus musculus. As to the kind of experiment: Reduction in triglycerides level in mouse at 3 mg/kg, po after 2 hrs by postprandial triglyceride assay. Format: functional.
Data set [9] in a line: Permeability in human Caco2 cells. Format: ADME, cell-based. The conditions noted are these: Caco-2, read-out: permeability. (In general: Caco-2 cells form a polarised layer with tight junctions and transporters.)
Data set [10] can be described thus: Total AUC in rat at 10 mg/kg. Format: ADME, organism-based. Particulars: in vivo. Also on record: time AUCmax, dose 10 mg/kg.
In data set [11] the test system is Mus musculus. As to the kind of experiment: Reduction in triglycerides level in mouse at 1 mg/kg, po after 2 hrs by postprandial triglyceride assay. Format: functional.
The test system of data set [12] is Mus musculus. As to the kind of experiment: Reduction in triglycerides level in mouse at 0.3 mg/kg, po after 2 hrs by postprandial triglyceride assay. Format: functional.
The target of the next data set is Cytochrome P450 2C9 (Homo sapiens, UniProt P11712). As to the kind of experiment: Inhibition of CYP2C9 (unknown origin).
Chain of Cytochrome P450 2C9 (P11712 whole entry): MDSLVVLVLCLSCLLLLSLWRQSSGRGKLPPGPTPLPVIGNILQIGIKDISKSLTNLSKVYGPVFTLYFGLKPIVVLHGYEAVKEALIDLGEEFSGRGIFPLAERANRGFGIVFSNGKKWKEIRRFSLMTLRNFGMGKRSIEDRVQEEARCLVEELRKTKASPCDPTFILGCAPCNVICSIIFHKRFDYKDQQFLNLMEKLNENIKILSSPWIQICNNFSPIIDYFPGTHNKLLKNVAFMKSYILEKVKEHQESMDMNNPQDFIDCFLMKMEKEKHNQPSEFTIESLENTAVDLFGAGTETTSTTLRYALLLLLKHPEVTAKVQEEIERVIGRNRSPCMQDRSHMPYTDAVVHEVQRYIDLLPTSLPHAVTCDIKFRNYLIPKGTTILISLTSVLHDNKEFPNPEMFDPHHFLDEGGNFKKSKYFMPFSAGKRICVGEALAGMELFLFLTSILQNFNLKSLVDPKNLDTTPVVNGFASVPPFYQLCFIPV
The target of data set [13] is T4, Sterol O-acyltransferase 1 (Homo sapiens, UniProt P35610).
T4 sequence (P35610 whole entry): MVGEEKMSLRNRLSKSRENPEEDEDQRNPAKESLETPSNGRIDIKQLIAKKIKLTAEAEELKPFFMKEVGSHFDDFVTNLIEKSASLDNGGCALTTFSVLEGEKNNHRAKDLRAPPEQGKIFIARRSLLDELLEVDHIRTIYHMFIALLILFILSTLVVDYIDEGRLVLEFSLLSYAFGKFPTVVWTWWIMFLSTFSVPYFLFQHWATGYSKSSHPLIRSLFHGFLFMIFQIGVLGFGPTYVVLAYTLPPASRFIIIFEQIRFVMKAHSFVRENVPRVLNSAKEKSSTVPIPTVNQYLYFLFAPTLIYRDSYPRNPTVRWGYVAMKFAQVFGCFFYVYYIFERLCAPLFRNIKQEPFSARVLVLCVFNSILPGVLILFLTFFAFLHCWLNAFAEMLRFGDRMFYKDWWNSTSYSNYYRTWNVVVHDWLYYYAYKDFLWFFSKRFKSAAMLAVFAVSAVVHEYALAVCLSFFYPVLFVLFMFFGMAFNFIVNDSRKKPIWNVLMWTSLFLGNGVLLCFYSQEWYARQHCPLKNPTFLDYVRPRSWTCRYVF
As to the kind of experiment: Inhibition of human ACAT1 expressed in Sf9 insect cells using [14C]-oleoyl-CoA by scintillation counting analysis.

Data set [14] addresses T5, Diacylglycerol O-acyltransferase 2 (Homo sapiens, UniProt Q96PD7).
T5 sequence (Q96PD7 whole entry): T2 sequence (whole entry)
Described as §1.

The nature of data set [15]: AUC in mouse at 10 mg/kg. Format: ADME, organism-based. The arrangement: dose 10 mg/kg. Particulars: plasma.
The nature of data set [16]: Cmax in rat. Particulars: in vivo. Format: ADME, organism-based.
Data set [17] can be described thus: Solubility in plasma (unknown origin) at pH 7. It counts as ADME, cell-free.
Data set [18] is described as follows: Total AUC in rat. Format: ADME, organism-based. Also on record: time AUCmax. Particulars: in vivo.
Data set [19] in a line: Tmax in rat. Format: ADME, organism-based. Particulars: in vivo.

The values below come from ChEMBL document CHEMBL3286266, “Development of novel benzomorpholine class of diacylglycerol acyltransferase I inhibitors” (ACS Med Chem Lett, 2014).

≈ marks a conversion by molar mass, not a printed value. Calls of active or inactive are those of the source. The rule behind the calls is not given here.

In the case of `O=C(O)C[C@H]1CC[C@H](c2ccc(-c3ccc4c(c3)OCCN4C(=O)Nc3ccccc3)cc2)CC1`, testing at 10 mg/kg with Mus musculus [1] gave an inhibition in vivo of 52%. In addition, in data set [2], the metabolised at 12 h amounted to 10%.

For the compound `O=C(O)C[C@H]1CC[C@H](c2ccc(-c3ccc4c(c3)OCCN4C(=O)Nc3ccc(F)cc3C(F)(F)F)cc2)CC1`, testing at 10 mg/kg in the data set on Mus musculus [1] gave an inhibition in vivo of 91%. For the same compound, the values for the IC50 in data set [3] and in data set [7] were 35 nM and 9600 nM, respectively. Besides, in data set [4], the concentration in solution (solubility) came to 100 µM (≈ 55.7 µg/mL). The inhibition entry in [5] was “inactive”. In addition, the AUC (usually concentration integrated over time) in data set [6] stood at 23 µM·h. For the same compound, the inhibition in vivo (in general, the drop in the measured response relative to a control, in per cent) at 3 mg/kg with Mus musculus [8] is 59%. Further, the Papp in data set [9] turned out to be 23.9 ×10⁻⁶ cm/s.

`CCC1CN(C(=O)Nc2ccccc2)c2ccc(-c3ccc(OCC(C)(C)C(=O)O)nc3)cc2O1` (stereo not drawn): the IC50 (as a rule, the concentration that inhibits the measured activity by half) in data set [3] was found to be 73 nM; on Cytochrome P450 2C9, 500 nM. Also, the AUC in data set [10] was determined as 46 µM·h. In the data set on Mus musculus [11], this compound registered an inhibition in vivo at 1 mg/kg of 100%. Further, the inhibition in vivo at 0.3 mg/kg with Mus musculus [12] worked out at 73%.

For `C[C@@H]1CN(C(=O)Nc2ccccc2)c2ccc(-c3ccc([C@H]4CC[C@H](CC(=O)O)CC4)cc3)cc2O1`, the IC50 in [3] was 18 nM; in [13], 10000 nM; in [14] it was 10000 nM; in [7], 2000 nM; against Cytochrome P450 2C9 it was 14000 nM. In addition, the AUC in data set [15] was found to be 34 µM·h.

`CCCCCCCNC(=O)N1CCOc2cc(-c3ccc([C@H]4CC[C@H](CC(=O)O)CC4)cc3)ccc21` showed an IC50 in data set [3] of 27 nM. In addition, in [16], the highest level (Cmax) was 65 nM. Moreover, in [17], the solubility (as a rule, the dissolved amount per volume that the medium holds) was determined as 5 µM (≈ 2.46 µg/mL). For the same compound, the inhibition in vivo at 3 mg/kg in the data set with Mus musculus [8] is 48%. In data set [18], this compound gave an AUC of 0.195 µM·h. Besides, the time to peak (Tmax) (in general, the time at which the peak concentration occurs) in data set [19] amounted to 2 h. In addition, the Papp in data set [9] stood at 3.5 ×10⁻⁶ cm/s.
